Results taken from patent publication US11491135B2 (priority 2019, dated 2022).
Read-outs that look alike come from different tables or passages of the source.

Experiments:
[1] = test system: Clostridium perfringens ATCC13124; assay type: in vivo, Arbor Acre broiler chickens; conditions: 25 mg/kg orally every 12 h, 5 days
[2] = test system: Clostridium perfringens ATCC13124; assay type: cell-based; conditions: 0.7% BHIA plates, anaerobic 37° C., 48 h
Clostridium perfringens = assay type: cell-based; conditions: 4, 8, 16 and 32 μg/ml, 30° C., 5 days, crystal violet absorbance at 570 nm

COc1c(O)cc2occ(-c3ccc(O)cc3)c(=O)c2c1O [tectorigenin]
daily weight gain of broiler chickens, treatment group vs infected group [1]: significantly higher than that of the infected group | histopathological injury of small intestine (HE staining) [1]: significantly alleviated | degree of pathological changes of the necrotic enteritis in the intestinal tract (intestinal lesion scoring, 0-6) ([1]; chickens sacrificed at 21-day-old): significantly reduced | gliding motility of Clostridium perfringens on BHIA ([2]; 8 μg/ml tectorigenin): significantly inhibit | gliding motility of Clostridium perfringens on BHIA ([2]; 32 μg/ml tectorigenin): significantly inhibit | biofilm formation of Clostridium perfringens (Clostridium perfringens): effectively inhibit
